# Measured values from patent publication US20140213506A1, “THYMOSIN ALPHA PEPTIDE FOR PREVENTING, REDUCING THE SEVERITY OF, AND TREATING INFECTION” (priority 2011, published 2014).
# No end group written: not given here.
# Assays:
# [1] = TA1 0.3-1.2 mg/kg/dose i.p. with Fluvirin
# [2] = TA1 0.28 or 0.57 mg/kg s.c. with vaccine
# Procedure: The vaccine (either Agrippal influPozzi seasonal vaccine, non-adjuvanted, or Fluad, MF-59 adjuvanted) was administered via intramuscular injection to the right leg at a full human dose of 0.5 mL. TA1 (0.285 or 0.570 mg/kg/dose) was administered by the subcutaneous route at a dose volume that, using a scaling factor for ferret/human dosing, corresponding to approximate human doses of 3.2 or 6.4 mg/kg. Animals were observed twice daily for mortality, general health, and both local and systemic signs of toxicity and illness as well as behavior under the responsibility of a professional veterinarian. Body weights were recorded prior to dosing only.
# [3] = cited from earlier work
# [4] = cited from earlier work; remark: listed apart in the source
# [5] = doses as high as 800 times the recommended human dose; cited from earlier work
substance,measurement,setting,value
"Ac-SDAAVDTSSEITTKDLKEKKEVVEEAEN [TA1, (N-acetyl)-Ser-Asp-Ala-Ala-Val-Asp-Thr-Ser-Ser-Glu-11e-Thr-Thr-Lys-Asp-Leu-Lys-Glu-Lys-Lys-Glu-Val-Val-Glu-Glu-Ala-Glu-Asn-OH]",clinical/cageside observations and body weight effects,[1],no test article-related clinical/cageside observations or body weight effects
same,survival,[1],All animals survived until scheduled termination
same,"safety and tolerability, cage-side observations",[2],safe and well-tolerated
same,worsening of side effects in combination,[3]; TA1 combined with other agents such as interferon and chemotherapy,Nor has there been any worsening of side effects
same,drug-related side effects,"[3]; more than 3,000 patients (adults, elderly, children; hepatitis B and C, primary immunodeficiency, cancers)",virtually no drug-related side effects
same,Peak plasma levels,[4]; after injection of 3.2 mg of TA1 (about 40 μg/kg),approximately 100 ng/ml
same,half-life of TA1 in the circulation,[4]; in vivo,about 2 hours
same,plasma half-life,[4]; subcutaneously injected TA1,about two
same,adverse clinical signs,[5],no evidence of adverse clinical signs
